Values joined by “and” are separate entries in the source; they are usually repeats but may differ in a detail not shown here. Equal entries are not always repeated. Where two headings read alike, the source gives them in different places.
Assays:
[1] = Plasma concentration of Compound 1 in DU145 PK/PD cohort; assay type: in vivo; details: for concentration at 72 h: BALA/c nude (sic, BALB/c nude); for concentration at 72 h / concentration at 4 h: mouse, plasma, intraperitoneal; for concentration at 4 h: BALB/c nude
Procedure: Procedure: The experimental details of the studies, including tumor model, mouse strain, cell number implanted, vehicle used, days of treatment, treatment details, and average tumor size at start of dosing are outlined in Table 3. All study mice were obtained and the studies were conducted at Pharmaron. Each mouse was inoculated subcutaneously on the right flank with the single cell suspension of DU145 human prostate cancer tumor cells (5×10^6) in 0.1 mL with Matrigel (1:1) in MEM with 10% FBS for tumor development.
Based on tumor volume, mice were randomly assigned to respective groups using a computer-generated randomization procedure. The study groups and the number of animals per group are shown in Table 4A (efficacy study) and Table 4B (PKPD study).
Treatment for the PKPD cohort was initiated when the mean tumor volume reached 281 mm^3 on Day 14 post tumor cell inoculation. Animals were randomized into 5 groups: 1) Vehicle Control, 3 doses intraperitoneally (IP); 2) Compound 1 at 1 mg/kg, single dose IP; 3) Compound 1 at 15 mg/kg, single dose IP; 4) Compound 1 at 1 mg/kg, 3 doses IP; and 5) Compound 1 at 15 mg/kg, 3 doses IP.
In the case of an animal reaching a tumor size exceeding 2000 mm^3, the entire group was terminated. Plasma and tumor samples were collected at 4 hours and 72 hours post last dose for all groups. For the PKPD Cohort, the tumors were cut into 2 pieces: one for Western Blotting (WB) with BRD9 analysis, and one for RNAseq analysis. For the Efficacy Cohort, the tumors were analyzed for BRD9 levels by Western Blotting (WB).

[2] = test system: VCAP human prostate cancer tumor cells; test: VCaP CRPC CDX model in castrated mice (Example 6), tumor growth inhibition and tolerability; assay type: in vivo
Procedure: Procedure: The experimental details of the studies, including tumor model, mouse strain, cell number implanted, vehicle used, days of treatment, treatment details, and average tumor size at start of dosing are outlined in Table 7. All study mice were obtained and the studies were conducted at Pharmaron. Each mouse was inoculated subcutaneously on the right flank with the single cell suspension of VCAP human prostate cancer tumor cells (1×10^7) in 0.1 mL with Matrigel (1:1) in DMEM medium with 10% FBS for tumor development. The mice were castrated by removing the testes via a scrotal approach when the tumor volume reached 270 mm^3. After castration, the tumor volume decreased. Treatment started when the mean tumor volume grew back 265 mm^3. Based on tumor volume, mice were randomly assigned to respective groups using a computer-generated randomization procedure and treated according to the study design in Table 8.

[3] = VCAP CRPC model, castrated mice, Compound 1 at 10 mg/kg IP BIW, 25 days
[4] = VCAP CRPC model, castrated mice, Compound 1 at 10 mg/kg IP BIW, 25 days, Day 57

Question: Which “Plasma Concentration of Compound 1 (individual mice)” value (shortened to “Plasma Concentration”) ([1]; 1 mg/kg BIW 3 doses IP, 4 hours post last dose, group 4) does the source give for `COc1cc(-c2cn(C)c(=O)c3cnc(N4CCC4)cc23)cc(OC)c1CN1CCC(CN2CCC3(CC2)CN(c2ccc4c(c2)C(=O)N(C2CCC(=O)NC2=O)C4)C3)CC1` (stereo not shown) [Compound 1, 3-(6-(7-((1-(4-(6-(azetidin-1-yl)-2-methyl-1-oxo-1,2-dihydro-2,7-naphthyridin-4-yl)-2,6-dimethoxybenzyl)piperidin-4-yl)methyl)-2,7-diazaspiro[3.5]nonan-2-yl)-1-oxoisoindolin-2-yl) piperidine-2,6-dione] here?
Answer: Its value is 10.9 ng/mL and 14.4 ng/mL and 6.89 ng/mL.

Question: And the “Plasma Concentration” value ([1]; 1 mg/kg BIW 3 doses IP, 72 hours post last dose, group 4)?
Answer: The value was 2.75 ng/mL and 1.85 ng/mL.

Question: What about the “difference in PK between a single dose or three doses” value ([1]; 1 mg/kg IP) of the same compound?
Answer: Its value is “No difference in PK”.

Question: What about the “Plasma Concentration” value ([1]; 1 mg/kg single dose IP, 4 hours post last dose, group 2) of the same compound?
Answer: The value was 18.0 ng/mL and 9.37 ng/mL and 8.07 ng/mL.

Question: What about the “Plasma Concentration” value ([1]; 1 mg/kg single dose IP, 72 hours post last dose, group 2, BLOQ = below quantifiable limit of 1.05 ng/mL) of the same compound?
Answer: Its value is 1.59 ng/mL and BLOQ*.

Question: And the “Plasma Concentration” value ([1]; 15 mg/kg BIW 3 doses IP, 4 hours post last dose, group 5)?
Answer: Its value is 63.4 ng/mL and 71.3 ng/mL.

Question: And the “Plasma Concentration” value ([1]; 15 mg/kg BIW 3 doses IP, 72 hours post last dose, group 5)?
Answer: Its value is 10.5 ng/mL and 6.77 ng/mL.

Question: And the “PK exposure, single dose vs three doses” value ([1]; 15 mg/kg IP)?
Answer: The value was 15 mg/kg (single dose) group had better PK exposure than the 15 mg/kg (three doses) group.

Question: What about the “Plasma Concentration” value ([1]; 15 mg/kg single dose IP, 4 hours post last dose, group 3) of the same compound?
Answer: The value was 132 ng/mL and 92.3 ng/mL.

Question: And the “Plasma Concentration” value ([1]; 15 mg/kg single dose IP, 72 hours post last dose, group 3)?
Answer: The value was 15.7 ng/mL and 50.2 ng/mL and 28.6 ng/mL.

Question: What about the concentration at 72 h ([1]; 1 mg/kg, 1 mg/kg BIW 3 doses IP, 72 hours post last dose, group 4, read-out: Plasma Concentration of Compound 1 (individual mice)) of the same compound?
Answer: Its concentration at 72 h is 2.02 ng/mL.

Question: And the concentration at 72 h ([1]; 1 mg/kg, 1 mg/kg BIW 3 doses IP, 72 hours post last dose, group 4, read-out: Plasma Concentration of Compound 1, Mean)?
Answer: Its concentration at 72 h is 2.21 ng/mL.

Question: And the concentration at 72 h ([1]; 1 mg/kg, 1 mg/kg single dose IP, 72 hours post last dose, group 2, BLOQ = below quantifiable limit of 1.05 ng/mL, read-out: Plasma Concentration of Compound 1 (individual mice))?
Answer: Its concentration at 72 h is 1.18 ng/mL.

Question: And the concentration at 72 h ([1]; 1 mg/kg, 1 mg/kg single dose IP, 72 hours post last dose, group 2, read-out: Plasma Concentration of Compound 1, Mean)?
Answer: The concentration at 72 h was 1.39 ng/mL.

Question: And the concentration at 72 h ([1]; 15 mg/kg, 15 mg/kg BIW 3 doses IP, 72 hours post last dose, group 5, read-out: Plasma Concentration of Compound 1 (individual mice))?
Answer: Its concentration at 72 h is 6.43 ng/mL.

Question: What about the concentration at 72 h ([1]; 15 mg/kg, 15 mg/kg BIW 3 doses IP, 72 hours post last dose, group 5, read-out: Plasma Concentration of Compound 1, Mean) of the same compound?
Answer: The concentration at 72 h was 7.9 ng/mL.

Question: And the concentration at 72 h ([1]; 15 mg/kg, 15 mg/kg single dose IP, 72 hours post last dose, group 3, read-out: Plasma Concentration of Compound 1, Mean)?
Answer: The concentration at 72 h was 31.5 ng/mL.

Question: And the concentration at 4 h ([1]; 1 mg/kg, 1 mg/kg BIW 3 doses IP, 4 hours post last dose, group 4, read-out: Plasma Concentration of Compound 1, Mean)?
Answer: Its concentration at 4 h is 10.8 ng/mL.

Question: And the concentration at 4 h ([1]; 1 mg/kg, 1 mg/kg single dose IP, 4 hours post last dose, group 2, read-out: Plasma Concentration of Compound 1, Mean)?
Answer: The concentration at 4 h was 11.8 ng/mL.

Question: And the concentration at 4 h ([1]; 15 mg/kg, 15 mg/kg BIW 3 doses IP, 4 hours post last dose, group 5, read-out: Plasma Concentration of Compound 1 (individual mice))?
Answer: The concentration at 4 h was 82.9 ng/mL.

Question: What about the concentration at 4 h ([1]; 15 mg/kg, 15 mg/kg BIW 3 doses IP, 4 hours post last dose, group 5, read-out: Plasma Concentration of Compound 1, Mean) of the same compound?
Answer: Its concentration at 4 h is 72.5 ng/mL.

Question: What about the concentration at 4 h ([1]; 15 mg/kg, 15 mg/kg single dose IP, 4 hours post last dose, group 3, read-out: Plasma Concentration of Compound 1 (individual mice)) of the same compound?
Answer: Its concentration at 4 h is 147 ng/mL.

Question: And the concentration at 4 h ([1]; 15 mg/kg, 15 mg/kg single dose IP, 4 hours post last dose, group 3, read-out: Plasma Concentration of Compound 1, Mean)?
Answer: Its concentration at 4 h is 124 ng/mL.

Question: What about the “exposures in plasma, in words” value ([1]; DU145 PK/PD cohort, 1 and 15 mg/kg IP, 4 h and 72 h post last dose) of the same compound?
Answer: Its value is “time and dose dependent exposures”.

Question: And the “exposure difference between a single dose and three doses” value ([1]; at each dose level (1 and 15 mg/kg IP))?
Answer: Its value is “no obvious exposure difference”.

Question: And the “animals found dead at the late stage of the treatment period” value ([2]; Compound 1 10 mg/kg, enzalutamide 30 mg/kg, deaths suspected due to castration surgery)?
Answer: The value was “One”.

Question: And the “Tumor Growth % on Day 57” value [2, 3]?
Answer: The value was 267 ± 20%.

Question: And the “Tumor Size on Day 57” value [2, 3]?
Answer: The value was 697 ± 44 mm3.

Question: And the T/C [2, 4]?
Answer: Its T/C is 86.2%.

Question: What about the TGI [2, 4] of the same compound?
Answer: Its TGI is 13.8%.

Question: And the TGI ([2]; VCaP CRPC model, castrated mice, Compound 1 10 mg/kg, enzalutamide 30 mg/kg, day 57 after tumor inoculation)?
Answer: Its TGI is 13.8%.
